The results in this text go back to ChEMBL document CHEMBL1201862, “PubChem BioAssay data set” (2004).

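Five compound concentrations were applied to cells in 96-well plates for 48 hours; endpoints were derived by simple linear interpolation of the resulting dose-response curve. The concentration for 50% growth inhibition is given as GI50.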 The source made the active and inactive calls. Rule as the data show it: active = GI50 up to about 1.1 µM and inactive = higher.

Some test systems named below: A498; A549; CAKI-1; HCT-15; HOP-92; K562; MCF7; MOLT-4; Malme-3M; NCI-H23; NCI/ADR-RES; RXF 393; SF-539; SK-MEL-28; SK-MEL-2; SK-MEL-5; SK-OV-3; SNB-19; SNB-75.
Assay in all cases: NCI anticancer screen, dose series, 48 h

`COc1cc2c(cc1O)CC1c3c(cc(O)c(OC)c3-2)CCN1C` (stereo unspecified): the GI50 with A498 was > 100 µM (inactive); in the test on A549, > 100 µM (inactive); in the test with CAKI-1, > 100 µM (inactive); in the test with HCT-15 it was over 100 µM; in the test with HOP-92, > 78.3 µM (inactive); in the test with K562, > 100 µM (inactive). Also, the GI50 in the test with MCF7 is > 100 µM (inactive); in the test on MOLT-4, > 58.3 µM (inactive); with Malme-3M, > 100 µM (inactive); with NCI-H23, > 100 µM (inactive); in the test on NCI/ADR-RES it was > 100 µM (inactive); in the test on RXF 393 it was > 100 µM (inactive). Moreover, the GI50 with SF-539 is > 39.9 µM (inactive); in the test on SK-MEL-28, > 100 µM (inactive); in the test with SK-MEL-2 it was > 100 µM (inactive); in the test with SK-MEL-5, > 89.7 µM (inactive); with SK-OV-3 it was > 100 µM (inactive); with SNB-19, > 100 µM (inactive). Further, the GI50 in the test with SNB-75 was 81.1 µM (inactive).

As for `C[C@H]1CCC/C=C/[C@@H]2C[C@H](OC3OC(CO)C(O)C(O)C3O)C[C@H]2[C@H](O)/C=C/C(=O)O1` (stereo partly specified), the GI50 with A498 was 25.5 µM (inactive); in the test on A549, 88.7 µM (inactive); in the test on CAKI-1 it was > 100 µM (inactive); in the test on HCT-15, 72.3 µM; with HOP-92, > 100 µM (inactive); in the test with K562, > 100 µM (inactive). For the same molecule, the GI50 with MCF7 is 62.4 µM (inactive); with MOLT-4, > 100 µM (inactive); in the test with Malme-3M, 17.8 µM (inactive); with NCI-H23, 53.1 µM (inactive); in the test on NCI/ADR-RES, 33.3 µM (inactive); with RXF 393, 19 µM (inactive). Moreover, the GI50 in the test with SF-539 is 32.1 µM (inactive); in the test with SK-MEL-28, 25.1 µM (inactive); in the test on SK-MEL-2 it was 49.5 µM (inactive); in the test with SK-MEL-5, 17.2 µM (inactive); in the test on SK-OV-3, 40 µM (inactive); with SNB-19 it was > 100 µM (inactive). Further, the GI50 with SNB-75 is 35 µM (inactive).

For `O=c1ccn(CC2(CO)CCC2)c(=O)[nH]1`, the GI50 in the test on A498 is > 100 µM (inactive); in the test on A549, > 100 µM (inactive); in the test with CAKI-1, > 100 µM (inactive); in the test on HCT-15 it was over 100 µM; in the test with HOP-92, > 100 µM (inactive); in the test on K562, > 100 µM (inactive). Further, the GI50 with MCF7, in the test with MOLT-4, with Malme-3M, with NCI-H23, in the test with NCI/ADR-RES and in the test on RXF 393 was > 100 µM (inactive) in each case. Further, the GI50 with SF-539, in the test on SK-MEL-28, in the test on SK-MEL-2, in the test with SK-MEL-5, with SK-OV-3 and in the test on SNB-75 was > 100 µM (inactive) in each case.

`Cn1c(-c2cccc([N+](=O)[O-])c2)[n+](C)c2ccccc21`: the GI50 in the test with A498 was > 100 µM (inactive); in the test with A549 it was 46.9 µM (inactive); with CAKI-1, > 100 µM (inactive); in the test with HCT-15, over 100 µM; in the test on HOP-92 it was > 100 µM (inactive); in the test on K562, > 100 µM (inactive). The GI50 in the test on MCF7 is > 100 µM (inactive); in the test on MOLT-4, > 100 µM (inactive); with Malme-3M it was 89.3 µM (inactive); in the test on NCI-H23, 25.7 µM (inactive); with NCI/ADR-RES, > 100 µM (inactive); in the test with RXF 393, > 100 µM (inactive). Besides, the GI50 was > 100 µM (inactive) in the test on SF-539; > 100 µM (inactive) in the test on SK-MEL-28; > 100 µM (inactive) with SK-MEL-2; 76.7 µM (inactive) with SK-MEL-5; > 100 µM (inactive) in the test on SK-OV-3; > 100 µM (inactive) in the test on SNB-19. Besides, in the test with SNB-75, the GI50 is > 100 µM (inactive).

On to `Cc1ccc(-c2cc(-c3ccc(Cl)cc3)nc(/N=C3\C(=O)N(CN4CCOCC4)c4ccc(Cl)cc43)n2)cc1`, for which the GI50 in the test on A498 was 20.5 µM (inactive); with A549 it was 27.2 µM (inactive); in the test on CAKI-1 it was 23 µM (inactive); in the test with HCT-15, 23.2 µM; with HOP-92, 17.9 µM (inactive); with K562, 10.5 µM (inactive). In addition, the GI50 in the test with MCF7 is 17.5 µM (inactive); with MOLT-4, 1.1 µM (active); with Malme-3M it was > 100 µM (inactive); in the test on NCI-H23 it was 19.6 µM (inactive); in the test with NCI/ADR-RES, 22.6 µM (inactive); with RXF 393, 13.8 µM (inactive). The GI50 was 23 µM (inactive) in the test on SF-539; 42.4 µM (inactive) in the test with SK-MEL-28; 20.1 µM (inactive) with SK-MEL-2; 18.1 µM (inactive) in the test on SK-MEL-5; 35.6 µM (inactive) in the test on SK-OV-3; 34.8 µM (inactive) in the test with SNB-19. Besides, in the test with SNB-75, the GI50 is 29.9 µM (inactive).

`Oc1cc2c3c(c1)CCCN3CCC2`: the GI50 was > 10 µM (inactive) in the test on A498; > 10 µM (inactive) in the test with A549; > 10 µM (inactive) in the test on CAKI-1; over 10 µM in the test with HCT-15; > 10 µM (inactive) in the test with HOP-92; > 10 µM (inactive) with K562. Also, the GI50 in the test with MCF7, in the test with MOLT-4, in the test on Malme-3M, with NCI-H23, with NCI/ADR-RES and with RXF 393 was > 10 µM (inactive) each time. Also, the GI50 in the test on SF-539, in the test with SK-MEL-28, in the test with SK-MEL-2, with SK-MEL-5, in the test with SK-OV-3 and in the test with SNB-19 was > 10 µM (inactive) in each case. Moreover, in the test with SNB-75, the GI50 was > 10 µM (inactive).

With `CCC1NC(=O)C1NC(=O)OC` (stereo unspecified), the GI50 in the test with A498 is > 100 µM (inactive); with CAKI-1 it was > 100 µM (inactive); in the test on HCT-15, over 100 µM; with HOP-92 it was > 100 µM (inactive); in the test on K562 it was > 100 µM (inactive); in the test with MCF7 it was > 100 µM (inactive). Further, the GI50 in the test on MOLT-4, with Malme-3M, in the test with NCI-H23, with NCI/ADR-RES, in the test on RXF 393 and with SF-539 was > 100 µM (inactive) throughout. The GI50 in the test on SK-MEL-28, in the test with SK-MEL-2, in the test on SK-MEL-5, with SK-OV-3, in the test on SNB-19 and in the test on SNB-75 was > 100 µM (inactive) throughout.

With `CN(C)c1ccc(C2CC(=O)CC(c3ccc(N(C)C)cc3)C23C(=O)NC(=S)NC3=O)cc1` (stereo unspecified), the GI50 was > 100 µM (inactive) with A498; > 100 µM (inactive) with A549; > 100 µM (inactive) in the test with CAKI-1; over 100 µM in the test on HCT-15; > 100 µM (inactive) with HOP-92; > 100 µM (inactive) in the test on K562. In addition, the GI50 in the test on MCF7 was 86.1 µM (inactive); in the test with MOLT-4, > 100 µM (inactive); with Malme-3M it was > 100 µM (inactive); in the test with NCI-H23, 91.2 µM (inactive); in the test on NCI/ADR-RES, > 100 µM (inactive); in the test with RXF 393, 45.7 µM (inactive). The GI50 is > 100 µM (inactive) in the test with SF-539; > 100 µM (inactive) in the test with SK-MEL-28; 38.8 µM (inactive) with SK-MEL-2; > 100 µM (inactive) in the test with SK-MEL-5; > 100 µM (inactive) with SK-OV-3; 71.3 µM (inactive) in the test on SNB-19. The GI50 in the test on SNB-75 is 14.6 µM (inactive).

Take `CCC1CCC2C3CC=C4CC(OC(C)=O)C(N)CC4(C)C3CCC12C` (stereo unspecified): the GI50 is 5.25 µM (inactive) in the test on A498; 2.07 µM (inactive) with A549; 8.55 µM (inactive) in the test on CAKI-1; 3.3 µM with HCT-15; 5.02 µM (inactive) in the test with HOP-92; 2.05 µM (inactive) in the test with K562. The GI50 in the test with MCF7 was 6.41 µM (inactive); with MOLT-4 it was 2.37 µM (inactive); in the test with Malme-3M, 3.49 µM (inactive); with NCI-H23, 6 µM (inactive); in the test with NCI/ADR-RES, 5.21 µM (inactive); with RXF 393, 1.85 µM (inactive). Also, the GI50 in the test with SF-539 was 1.86 µM (inactive); in the test with SK-MEL-28 it was 3.66 µM (inactive); in the test on SK-MEL-2, 3.97 µM (inactive); in the test with SK-MEL-5, 1.82 µM (inactive); in the test with SK-OV-3 it was 9.53 µM (inactive); in the test with SNB-19 it was 2.51 µM (inactive). Also, in the test with SNB-75, the GI50 was 1.89 µM (inactive).

Take `CCCCCCCCCCCCCCCCOP(=O)(O)OP(=O)(O)OCC1OC(n2ccc(N)nc2=O)CC1O` (stereo unspecified): the GI50 is > 100 µM (inactive) in the test with A498; > 100 µM (inactive) with A549; > 100 µM (inactive) in the test with CAKI-1; over 100 µM in the test on HCT-15; > 100 µM (inactive) with HOP-92; > 100 µM (inactive) in the test on K562. Further, the GI50 in the test on MCF7, in the test with MOLT-4, in the test on Malme-3M, in the test on NCI-H23, in the test with NCI/ADR-RES and with RXF 393 was > 100 µM (inactive) in each case. The GI50 in the test with SF-539, with SK-MEL-28, with SK-MEL-2, in the test on SK-MEL-5, in the test with SK-OV-3 and in the test with SNB-19 was > 100 µM (inactive) throughout. Also, in the test on SNB-75, the GI50 was > 100 µM (inactive).

In the case of `CN(C)CCCNc1c2ccccc2[n+]([O-])c2ccccc12`, the GI50 with A498 is 54.8 µM (inactive); with A549, 44.6 µM (inactive); with CAKI-1 it was 49.4 µM (inactive); with HCT-15 it was 41.4 µM; in the test on HOP-92 it was 36.5 µM (inactive); in the test with K562, 31.4 µM (inactive). Further, the GI50 was 31.6 µM (inactive) with MCF7; 42.4 µM (inactive) in the test with MOLT-4; 76.7 µM (inactive) in the test with Malme-3M; 45.7 µM (inactive) in the test on NCI-H23; > 100 µM (inactive) in the test on NCI/ADR-RES; 47.8 µM (inactive) in the test on RXF 393. The GI50 is 45.9 µM (inactive) in the test on SF-539; > 100 µM (inactive) in the test with SK-MEL-28; > 100 µM (inactive) in the test on SK-MEL-2; 40.1 µM (inactive) with SK-MEL-5; 82.6 µM (inactive) in the test with SK-OV-3; 51.4 µM (inactive) with SNB-75.
